For series [1], the system named is Human B Lymphocyte cell line, SU-DHL-8. The experiment in a line: Relative cell viability CCK-8, SU-DHL-8. It is filed as cell-based. The following applies: 48 hours, untreated (DMSO) = 100%; for viability at 1 µM / viability at 10 µM / viability at 30 µM / viability at 50 µM: Homo sapiens, SU-DHL-8, 48 h; for viability at 1 µM: read-out: Relative cell viability (%), SU-DHL-8, 1 μM; for viability at 10 µM: read-out: Relative cell viability (%), SU-DHL-8, 10 μM; for viability at 30 µM: read-out: Relative cell viability (%), SU-DHL-8, 30 μM; for viability at 50 µM: read-out: Relative cell viability (%), SU-DHL-8, 50 μM. As to the method: Human-derived B lymphoma cell line SU-DHL-8 (Cat. #CRL-2961) purchased from ATCC was cultured in RPMI-1640 medium containing 10% FBS, 100 U/mL penicillin, and 100 μg/mL streptomycin.
The cell culture medium was then harvested, centrifuged at 1,300 rpm for 5 minutes, and the supernatant was removed. The cells were resuspended in the same medium and dispensed into a 96-well plate (Costar 96-well cell culture plate, Corning) at 90 μL per well, resulting in the conditions specified in Table 5.
Then, 10 μL of CCK-8 was added to each well, and the plates were incubated again at 37° C. in a 5% CO2 incubator for 4 hours.
In other words, when the survival rate of untreated cells (DMSO) is set at 100%, the relative cell survival rate in each group treated with the drug at different concentrations is indicated.

Series [2] concerns T cells isolated from mouse spleens. Description: T cell proliferation inhibition (CFSE flow cytometry, anti-CD3/anti-CD28 stimulation). To be noted: mouse spleen T cells, 3 days; for inhibition at 0.01 µM / inhibition at 0.1 µM / inhibition at 1 µM / inhibition at 10 µM / inhibition at 30 µM / inhibition at 50 µM: Mus musculus, T-cell, 72 h, read-out: Proliferation inhibition rate (%). It is filed as cell-based. The essentials: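 Splenic T cells from 7-week-old C57BL/6 mice were MACS-isolated, CFSE-labelled, seeded at 2×10^5 cells/well and activated with anti-CD3/anti-CD28 (0.5 μg/mL each). Compound at 10 nM–50 μM (six levels, triplicate) was present for 3 days at 37 °C before flow cytometric readout of proliferation inhibition rate.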
A general note: A flow cytometer gives signals particle by particle.

The structures appear in SMILES notation.

Experimental findings from patent US20260183274A1, “PDK1 REGULATORY COMPOUND AND COMPOSITION CONTAINING THE SAME” (PROVIBIO CO., LTD., priority 2024, published 2026) are described below.

Turning to `COc1cc2c(cc1OC)CN(CCCCCCCCCCCCNC(=O)c1cccnc1N)CC2` [Compound 125, 2-Amino-N-(12-(6,7-dimethoxy-3,4-dihydroisoquinolin-2 (1H)-yl)dodecyl)nicotinamide], in series [1], the viability (in general, a read-out of living cells in per cent, often relative to untreated cells) at 1 µM came to 42%; the viability at 10 µM was found to be 42.6%; the viability at 30 µM worked out at 42%; the viability at 50 µM was 42.7%. Moreover, in series [2] (compound 10 nM), the inhibition at 0.01 µM is -4.48%. The inhibition at 0.1 µM in series [2] (compound 100 nM) turned out to be 100%. Further, the inhibition at 1 µM in series [2] (compound 1 μM) is 100%. Moreover, the inhibition at 10 µM in series [2] (compound 10 μM) was found to be 100%. The inhibition at 30 µM in series [2] (compound 30 μM) was 100%. Moreover, the inhibition at 50 µM in series [2] (compound 50 μM) amounted to 100%.
Take `COC1CCN(CCCCCCCCCCCCNC(=O)c2cccnc2N)C1` (centres unmarked) [Compound 126, 2-amino-N-(12-(3-methoxypyrrolidin-1-yl)dodecyl) nicotinamide]: the “Relative cell viability (%), SU-DHL-8” value in series [1] (1 μM, listed as K-PB-48, 1 µM) is 33.03%; in series [1] (10 μM, listed as K-PB-48, 10 µM) it was 31.98%; in series [1] (30 μM, listed as K-PB-48, 30 µM), 32.32%; in series [1] (50 μM, listed as K-PB-48, 50 µM) it was 30.44%. For the same compound, the “Proliferation inhibition rate (%)” value worked out at 0.00% in series [2] (compound 10 nM, listed as K-PB-48, 0.01 µM); 100.00% in series [2] (compound 100 nM); 100.00% in series [2] (compound 1 μM); 100.00% in series [2] (compound 10 μM); 100.00% in series [2] (compound 30 μM); 100.00% in series [2] (compound 50 μM).
On to `Nc1nc(NC(=O)CCCCCCCCCCCCN2CCC(O)CC2)nc2nc[nH]c12` [Compound 9, 12-(4-hydroxypiperidin-1-yl)dodecyl-N-(6-aminopurine-2-yl) carboxamide], for which, in series [1], the viability at 1 µM was found to be 5.32%, the viability at 10 µM worked out at 4.19%, the viability at 30 µM was found to be 3.36% and the viability at 50 µM turned out to be 3.14%. Also, the inhibition at 1 µM in series [2] (compound 1 μM) stood at 100%. The inhibition at 10 µM in series [2] (compound 10 μM) is 100%. In series [2] (compound 30 μM), the inhibition at 30 µM is 100%. Further, in series [2] (compound 50 μM), the inhibition at 50 µM was 100%. Also, in series [2] (compound 10 nM, listed as GO83, 0.01 µM), the “Proliferation inhibition rate (%)” value is 38.33%.
`Cl.Nc1ncccc1C(=O)NCCCCCCCCCCCCF` [Compound 69, 3-(12-fluoro-dodecylcarbamoyl)-pyridin-2-yl-ammonium chloride]: the “Relative cell viability (%), SU-DHL-8” value stood at 27.80% in series [1] (1 μM), 15.16% in series [1] (10 μM), 1.05% in series [1] (30 μM) and 0.77% in series [1] (50 μM). Besides, the “Proliferation inhibition rate (%)” value in series [2] (compound 10 nM) is listed as −4.04%; in series [2] (compound 100 nM), −4.66%; in series [2] (compound 1 μM), 7.14%; in series [2] (compound 10 μM), 65.36%; in series [2] (compound 30 μM), 89.94%; in series [2] (compound 50 μM), 99.20%.
For `Nc1ncccc1C(=O)NCCCCCCCCCCCCN1CCC(Oc2ccncc2)CC1` [Compound 38, 2-Amino-N-(12-(4-(pyridin-4-yloxy)piperidin-1-yl)dodecyl) nicotinamide], the “Relative cell viability (%), SU-DHL-8” value in series [1] (1 μM) is 4.16%; in series [1] (10 μM), 3.30%; in series [1] (30 μM), 1.79%; in series [1] (50 μM), 1.42%. Moreover, the “Proliferation inhibition rate (%)” value in series [2] (compound 10 nM) is given as −33.51%; in series [2] (compound 100 nM), 100.00%; in series [2] (compound 1 μM), 100.00%; in series [2] (compound 10 μM) it was 100.00%; in series [2] (compound 30 μM), 100.00%; in series [2] (compound 50 μM), 100.00%.
Regarding `CC1CN(C(=O)OC(C)(C)C)C(C)CN1CCCCCCCCCCCCNC(=O)c1cccnc1N` (centres unmarked) [Compound 30, tert-Butyl 4-(12-(2-aminonicotinamido)dodecyl)-2,5-dimethylpiperazine-1-carboxylate], in series [1], the viability at 1 µM was determined as 7.9%, the viability at 10 µM stood at 2.6%, the viability at 30 µM was 1.86% and the viability at 50 µM stood at 1.06%. In addition, the inhibition at 0.01 µM in series [2] (compound 10 nM) was found to be 1.34%. Besides, the inhibition at 0.1 µM in series [2] (compound 100 nM) came to 100%. The inhibition at 1 µM in series [2] (compound 1 μM) is 100%. For the same compound, the inhibition at 10 µM in series [2] (compound 10 μM) worked out at 100%. Besides, the inhibition at 30 µM in series [2] (compound 30 μM) was 100%. Also, in series [2] (compound 50 μM), the inhibition at 50 µM worked out at 100%.
Regarding `CN1CCN(CCCCCCCCCCCCNC(=O)c2ccc3[nH]cnc3c2)CC1` [Compound 91, N-(12-(4-methylpiperazin-1-yl)dodecyl)-1H-benzo[d]imidazole-5-carboxamide], in series [1], the viability at 1 µM was determined as 3.93%, the viability at 10 µM stood at 3.12%, the viability at 30 µM worked out at 1.84% and the viability at 50 µM was 1.59%. Besides, in series [2] (compound 10 nM), the inhibition at 0.01 µM is -14.6%. In addition, in series [2] (compound 100 nM), the inhibition at 0.1 µM turned out to be 100%. In series [2] (compound 1 μM), the inhibition at 1 µM was determined as 100%. The inhibition at 10 µM in series [2] (compound 10 μM) turned out to be 100%. For the same compound, in series [2] (compound 30 μM), the inhibition at 30 µM is 100%. Moreover, the inhibition at 50 µM in series [2] (compound 50 μM) came out at 100%.
For the compound `COC1CCN(CCCCCCCCCCCCNC(=O)c2cccnc2N)C1` (centres unmarked) [Compound 32, 2-Amino-N-(12-(3-methoxypyrrolidin-1-yl)dodecyl) nicotinamide], the “Relative cell viability (%), SU-DHL-8” value in series [1] (1 μM, listed as PBK-2024-024, 1 µM) came to 3.48%; in series [1] (10 μM, listed as PBK-2024-024, 10 µM) it was 3.01%; in series [1] (30 μM, listed as PBK-2024-024, 30 µM), 1.97%; in series [1] (50 μM, listed as PBK-2024-024, 50 µM), 1.45%. Further, the “Proliferation inhibition rate (%)” value in series [2] (compound 10 nM, listed as PBK-2024-024, 0.01 µM) is 0.29%.
Take `Nc1ccncc1C(=O)NCCCCCCCCCCCCF` [Compound 73, 4-Amino-N-(12-fluoro-dodecyl)-nicotinamide]: in series [1], the viability at 1 µM was found to be 11.9%, the viability at 10 µM came out at 5.03%, the viability at 30 µM worked out at 0.98% and the viability at 50 µM came to 0.91%. In series [2] (compound 10 nM), the inhibition at 0.01 µM is -6.44%. For the same compound, the inhibition at 0.1 µM in series [2] (compound 100 nM) was determined as 5.75%. Moreover, the inhibition at 1 µM in series [2] (compound 1 μM) was 7.4%. Also, the inhibition at 10 µM in series [2] (compound 10 μM) amounted to 84.8%. Further, the inhibition at 30 µM in series [2] (compound 30 μM) was found to be 100%. Further, the inhibition at 50 µM in series [2] (compound 50 μM) worked out at 100%.
As for `CN1CCN(CCCCCCCCCCCCNC(=O)c2cccnc2F)CC1` [Compound 121, 2-fluoro-N-(12-(4-methylpiperazin-1-yl)dodecyl) nicotinamide], the “Relative cell viability (%), SU-DHL-8” value was 34.89% in series [1] (1 μM), 28.99% in series [1] (10 μM), 29.04% in series [1] (30 μM) and 31.11% in series [1] (50 μM). In addition, the “Proliferation inhibition rate (%)” value in series [2] (compound 10 nM) was found to be 0.00%; in series [2] (compound 100 nM), 0.00%; in series [2] (compound 1 μM), 0.00%; in series [2] (compound 10 μM) it was 30.00%; in series [2] (compound 30 μM) it was 100.00%; in series [2] (compound 50 μM), 100.00%.
Consider `Nc1ncccc1C(=O)NCCCCCCCCCCCCN1CCSCC1` [Compound 4, 2-Amino-N-(12-thio-morpholin-4-yl-dodecyl)-nicotinamide], for which, in series [1], the viability at 1 µM came to 7.58%, the viability at 10 µM is 5.49%, the viability at 30 µM was 4.68% and the viability at 50 µM is 4.45%. The inhibition at 0.01 µM in series [2] (compound 10 nM) came out at 2.7%. Moreover, the inhibition at 0.1 µM in series [2] (compound 100 nM) was found to be 100%. Besides, the inhibition at 1 µM in series [2] (compound 1 μM) is 100%. In addition, in series [2] (compound 10 μM), the inhibition at 10 µM was determined as 100%. The inhibition at 30 µM in series [2] (compound 30 μM) stood at 100%. Moreover, the inhibition at 50 µM in series [2] (compound 50 μM) is 100%.
